Values after ≈ are worked out from the molar mass of the structure shown. Active and inactive are the calls of the source. The calls are words filed in the database; no cut-off is given here.
Assays:
[1] = Cytotoxicity against human SW707 cells after 72 hrs by crystal violet staining method; format: ADME, cell-based; details: SW707, 72 h
[2] = test system: CAPAN-1; assay: Cytotoxicity against human Capan1 cells after 72 hrs by crystal violet staining method; format: ADME, cell-based; details: CAPAN-1, 72 h
[3] = test system: Ca-Ski; assay: Cytotoxicity against human CaSki cells after 72 hrs by crystal violet staining method; format: ADME, cell-based
[4] = test system: Calu-6; assay: Cytotoxicity against human Calu6 cells after 72 hrs by crystal violet staining method; format: ADME, cell-based; details: Calu-6, 72 h
[5] = test system: MeWo; assay: Cytotoxicity against human MeWo cells after 72 hrs by crystal violet staining method; format: ADME, cell-based
[6] = test system: A-431; assay: Cytotoxicity against human A431 cells after 72 hrs by crystal violet staining method; format: ADME, cell-based; details: A-431, 72 h
[7] = Cytotoxicity against human Flow 2002 cells after 72 hrs by crystal violet staining method; format: ADME, cell-based; details: Flow 2002, 72 h
[8] = test system: HaCaT; assay: Cytotoxicity against human HaCaT cells after 72 hrs by crystal violet staining method; format: ADME, cell-based
[9] = test system: Staphylococcus aureus; assay: microbe, parasite or virus in culture; format: functional; details: NCTC 10442
Description: Antibacterial activity against methicillin-resistant Staphylococcus aureus NCTC 10442 after 20 to 24 hrs by broth microdilution assay

[10] = test system: Staphylococcus aureus; assay: microbe, parasite or virus in culture; format: functional; details: ATCC 25923
Description: Antibacterial activity against methicillin-sensitive Staphylococcus aureus ATCC 25923 after 20 to 24 hrs by broth microdilution assay

[11] = Inhibition of Staphylococcus aureus MurA2 expressed in Escherichia coli BL21(lambdaDE3) using UNAG and PEP as substrate incubated for 10 mins prior to PEP addition measured after 60 mins by spectrophotometric analysis
[12] = Inhibition of Pseudomonas aeruginosa MurA expressed in Escherichia coli BL21(lambdaDE3) using UNAG and PEP as substrate incubated for 10 mins prior to PEP addition measured after 60 mins by spectrophotometric analysis
[13] = biological target: UDP-N-acetylglucosamine 1-carboxyvinyltransferase (Escherichia coli K-12, UniProt P0A749, C115D); assay: Inhibition of Escherichia coli MurA C115D mutant expressed in Escherichia coli BL21(lambdaDE3) using UNAG and PEP as substrate incubated for 10 mins prior to PEP addition measured after 60 mins by spectrophotometric analysis
Sequence of UDP-N-acetylglucosamine 1-carboxyvinyltransferase (Escherichia coli K-12, UniProt P0A749, C115D) (P0A749 whole entry C115D): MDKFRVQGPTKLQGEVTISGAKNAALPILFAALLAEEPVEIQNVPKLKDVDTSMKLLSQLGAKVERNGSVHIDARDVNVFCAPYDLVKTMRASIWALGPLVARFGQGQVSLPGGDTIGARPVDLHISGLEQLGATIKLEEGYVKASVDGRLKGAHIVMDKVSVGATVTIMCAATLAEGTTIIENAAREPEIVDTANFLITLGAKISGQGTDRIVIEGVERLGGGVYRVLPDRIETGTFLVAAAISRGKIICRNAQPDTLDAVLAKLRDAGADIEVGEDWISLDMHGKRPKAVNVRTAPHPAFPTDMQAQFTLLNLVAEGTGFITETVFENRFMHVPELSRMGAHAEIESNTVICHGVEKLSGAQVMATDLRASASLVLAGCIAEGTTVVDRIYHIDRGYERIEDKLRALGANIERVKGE

[14] = biological target: UDP-N-acetylglucosamine 1-carboxyvinyltransferase (Escherichia coli K-12, UniProt P0A749); assay: Inhibition of Escherichia coli MurA expressed in Escherichia coli BL21(lambdaDE3) using UNAG and PEP as substrate incubated for 10 mins prior to PEP addition measured after 60 mins by spectrophotometric analysis
Sequence of UDP-N-acetylglucosamine 1-carboxyvinyltransferase (Escherichia coli K-12, UniProt P0A749) (P0A749 whole entry): as the sequence (P0A749 whole entry C115D) above, with D115C counted along it

[15] = test system: Pseudomonas aeruginosa; assay: microbe, parasite or virus in culture; format: functional; details: ATCC 27853
Description: Antibacterial activity against Pseudomonas aeruginosa ATCC 27853 after 20 to 24 hrs by broth microdilution assay

[16] = test system: Escherichia coli; assay: microbe, parasite or virus in culture; format: functional; details: ATCC 25922
Description: Antibacterial activity against Escherichia coli ATCC 25922 after 20 to 24 hrs by broth microdilution assay

[17] = Induction of GSSG formation in citrate buffer at 100 uM by RP-LC/MS analysis
[18] = Induction of GSH-adduct formation in citrate buffer at100 uM by RP-LC/MS analysis; details: 100 µM
[19] = test system: Dengue virus; details: at 50 µM
Description: Inhibition of Dengue virus NS2B-NS3 protease expressed in Escherichia coli BL21(lambdaDE3) using Abz-NleKRRS-3-(NO2)Y as substrate at 50 uM incubated for 15 mins prior to substrate addition measured for 15 mins by fluorometric analysis

[20] = biological target: Prothrombin (Homo sapiens) (UniProt P00734); details: at 25 µM
Description: Inhibition of thrombin (unknown origin) expressed in Escherichia coli BL21(lambdaDE3) using Boc-Val-Pro-Arg-AMC as substrate at 25 uM incubated for 15 mins prior to substrate addition measured for 10 mins by fluorometric analysis

[21] = biological target: Methionine aminopeptidase 2 (Homo sapiens) (UniProt P50579); details: at 10 µM
Sequence of Methionine aminopeptidase 2 (Homo sapiens) (P50579 2-478 limits assumed): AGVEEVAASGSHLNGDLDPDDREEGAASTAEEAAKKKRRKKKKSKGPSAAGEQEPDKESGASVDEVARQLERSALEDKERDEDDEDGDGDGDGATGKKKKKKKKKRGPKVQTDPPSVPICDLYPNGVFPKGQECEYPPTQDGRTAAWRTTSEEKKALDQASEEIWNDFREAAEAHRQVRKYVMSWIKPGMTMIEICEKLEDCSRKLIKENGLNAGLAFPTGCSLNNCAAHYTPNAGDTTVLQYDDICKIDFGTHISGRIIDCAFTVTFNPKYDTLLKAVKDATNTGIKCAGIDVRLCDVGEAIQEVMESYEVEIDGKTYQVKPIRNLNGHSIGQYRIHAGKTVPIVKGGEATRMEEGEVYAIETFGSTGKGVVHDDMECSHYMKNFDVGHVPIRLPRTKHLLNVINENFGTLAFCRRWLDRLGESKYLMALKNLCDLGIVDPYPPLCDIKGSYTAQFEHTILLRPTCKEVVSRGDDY
Description: Inhibition of human MetAP2 expressed in Escherichia coli BL21(lambdaDE3) using Met-AMC as substrate at 10 uM incubated for 30 mins prior to substrate addition measured for 15 mins fluorometric analysis

[22] = biological target: Methionine aminopeptidase 1 (Homo sapiens) (UniProt P53582); details: at 10 µM
Description: Inhibition of human MetAP1 expressed in Escherichia coli BL21(lambdaDE3) using Met-AMC as substrate at 10 uM incubated for 30 mins prior to substrate addition measured for 15 mins fluorometric analysis

[23] = test system: Escherichia coli; details: at 10 µM
Description: Inhibition of Escherichia coli MetAP expressed in Escherichia coli BL21(lambdaDE3) using Met-AMC as substrate at 10 uM incubated for 30 mins prior to substrate addition measured for 15 mins fluorometric analysis

[24] = Half life of the compound in citrate buffer at pH 6
[25] = Half life of the compound in tris buffer at pH 7.8
[26] = Cytotoxicity against human lymphoblastoid cells assessed as cell vaibility at 46 uM; format: cell-based; details: read-out: Activity

| Structure (SMILES) | IC50 [1] | IC50 [2] | IC50 [3] | IC50 [4] | IC50 [5] | IC50 [6] | IC50 [7] | IC50 [8] | MIC [9] | MIC [10] | MIC [15] | MIC [16] | Activity [17] | Activity [18] | inhibition [19] | inhibition [20] | inhibition [21] | inhibition [22] | inhibition [23] | IC50 ([11]; read-out: IC50) | other results |
| --- | --- | --- | --- | --- | --- | --- | --- | --- | --- | --- | --- | --- | --- | --- | --- | --- | --- | --- | --- | --- | --- |
| O=Cc1ccc(Br)o1 | ≥ 100 µM | ≥ 100 µM | ≥ 100 µM | ≥ 100 µM | ≥ 100 µM | ≥ 100 µM | ≥ 100 µM | ≥ 100 µM | > 32 µg/mL | > 32 µg/mL | > 32 µg/mL | > 32 µg/mL | Active | Active | inactive | inactive | inactive | inactive | inactive | – | IC50 [11]: Not Active; IC50 [12]: Not Active; IC50 [13]: Not Active; IC50 [14]: Not Active |
| O=[N+]([O-])CBr [BROMO(NITRO)METHANE] | 73 µM | 69 µM | 99 µM | 23 µM | 40 µM | 38 µM | 14 µM | 25 µM | 2 µg/mL (≈ 14.3 µM) | 2 µg/mL (≈ 14.3 µM) | 0.5 µg/mL (≈ 3.57 µM) | 1 µg/mL (≈ 7.15 µM) | Not Active | Active | inactive | inactive | 22% | inactive | 85% | 6.2 µM | IC50 ([12]; read-out: IC50): 4 µM; IC50 ([13]; read-out: IC50): 7.8 µM; IC50 ([14]; read-out: IC50): 4.6 µM |
| O=[N+]([O-])/C=C/c1ccc(Br)o1 | 22 µM | 19 µM | 18 µM | 5 µM | 21 µM | 12 µM | 6 µM | 15 µM | 2 µg/mL (≈ 9.17 µM) | 2 µg/mL (≈ 9.17 µM) | 4 µg/mL (≈ 18.3 µM) | 2 µg/mL (≈ 9.17 µM) | Active | Not Active | 26% | 19% | 7% | inactive | 30% | 20.7 µM | IC50 ([12]; read-out: IC50): 20.3 µM; IC50 ([13]; read-out: IC50): 23.8 µM; IC50 ([14]; read-out: IC50): 27.3 µM; half-life [24]: 116 h; half-life [25]: 58 h; viability at 46 µM [26]: > 70% |

Reference: ChEMBL document CHEMBL2331445, “Chemical, biochemical and microbiological properties of a brominated nitrovinylfuran with broad-spectrum antibacterial activity” (Bioorg Med Chem, 2013)
